Target: T1, full-length human PKCι (Homo sapiens, UniProt P41743)
T1 construct: Recombinant, full-length human PKCι expressed in Sf21 insect cells is also commercially available; purchased; host or cells: Sf21 insect cells
T1 sequence (P41743 1-596): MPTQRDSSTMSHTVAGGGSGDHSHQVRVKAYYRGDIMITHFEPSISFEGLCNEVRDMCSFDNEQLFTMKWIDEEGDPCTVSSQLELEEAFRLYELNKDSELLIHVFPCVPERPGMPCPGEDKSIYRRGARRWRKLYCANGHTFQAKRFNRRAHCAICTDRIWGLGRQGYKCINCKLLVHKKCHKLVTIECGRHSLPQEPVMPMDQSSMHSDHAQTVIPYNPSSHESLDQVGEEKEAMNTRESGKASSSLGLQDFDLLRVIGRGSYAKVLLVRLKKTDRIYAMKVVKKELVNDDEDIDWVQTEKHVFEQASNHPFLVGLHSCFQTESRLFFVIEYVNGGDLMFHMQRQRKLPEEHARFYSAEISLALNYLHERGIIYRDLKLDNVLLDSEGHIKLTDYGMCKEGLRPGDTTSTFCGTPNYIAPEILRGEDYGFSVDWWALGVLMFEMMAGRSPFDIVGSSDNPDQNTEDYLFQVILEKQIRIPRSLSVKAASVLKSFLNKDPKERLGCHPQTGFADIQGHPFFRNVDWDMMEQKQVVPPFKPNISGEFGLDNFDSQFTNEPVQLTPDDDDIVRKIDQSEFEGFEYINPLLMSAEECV
Assay: PKCι IC50 IMAP assay, full-length PKCι at 150 μM ATP
Assay type: biochemical
Conditions: read-out: IC50 in IMAP assay against full length PKCi at 150 μM ATP
Procedure, shortened: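 Full-length human PKCι from Sf21 cells, typically 15 pM, with 100 nM 5FAM-PKCε pseudosubstrate peptide and 150 μM ATP (5× apparent KM), 60 min at room temperature, 4% DMSO. IMAP fluorescence polarisation read-out; inhibition normalised to no-compound and no-enzyme controls, IC50 from curve fit.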

| Compound | IC50 |
| --- | --- |
| COc1cncc2nc(-c3ccnc(Nc4ccccc4)c3)nc(N[C@@H]3CCNC3)c12 [Example 238, [5-Methoxy-2-(2-phenylamino-pyridin-4-yl)-pyrido[3,4-d]pyrimidin-4-yl]-(R)-pyrrolidin-3-yl-amine] | < 100 nM |
| Fc1ccc(C(F)(F)F)cc1Nc1cc(-c2nc(N3CCNCC3)c3c(C4CC4)cncc3n2)ccn1 [Example 522, [4-(5-Cyclopropyl-4-piperazin-1-yl-pyrido[3,4-d]pyrimidin-2-yl)-pyridin-2-yl]-(2-fluoro-5-trifluoromethyl-phenyl)-amine] | 100 to 1000 nM |
| Fc1ccc(Cl)c(Nc2cc(-c3nc(N4CCNCC4)c4c(C5CC5)cncc4n3)ccn2)c1 [Example 576, (2-Chloro-5-fluoro-phenyl)-[4-(5-cyclopropyl-4-piperazin-1-yl-pyrido[3,4-d]pyrimidin-2-yl)-pyridin-2-yl]-Amine] | < 100 nM |
| FC[C@H]1CN(c2nc(-c3ccnc(Nc4ccccc4)c3)nc3cncc(C4CC4)c23)CCN1 [Example 552, {4-[5-Cyclopropyl-4-((R)-3-fluoromethyl-piperazin-1-yl)-pyrido[3,4-d]pyrimidin-2-yl]-pyridin-2-yl}-phenyl-amine] | < 100 nM |
| Fc1cnccc1-c1nc(N2CCNC(C(F)(F)F)C2)c2ccncc2n1 (stereo not drawn) [Example 66, 1-[2-(3-fluoropyridin-4-yl)pyrido[3,4-d]-pyrimidin-4-yl]-3-(trifluoromethyl)-piperazine] | 10000 to 40000 nM |
| Fc1ccnc(Nc2cc(-c3nc(N4CCNCC4)c4c(C5CCC5)cncc4n3)ccn2)c1 [Example 785, [4-(5-Cyclobutyl-4-piperazin-1-yl-pyrido[3,4-d]pyrimidin-2-yl)-pyridin-2-yl]-(4-fluoro-pyridin-2-yl)-amine] | < 100 nM |
| Fc1ccc(Nc2cc(-c3nc(N4CCNCC4)c4c(Cl)cncc4n3)ccn2)nc1 [Example 258, [4-(5-Chloro-4-piperazin-1-yl-pyrido[3,4-d]pyrimidin-2-yl)-pyridin-2-yl]-(5-fluoro-pyridin-2-yl)-amine] | < 100 nM |
| CN1CCN(c2cccc(Nc3cc(-c4nc(N5CCC(O)C(O)C5)c5c(C6CC6)cncc5n4)ccn3)c2)CC1 (racemic) [Example 678, (+/−)-(trans)-1-(5-Cyclopropyl-2-{2-[3-(4-methyl-piperazin-1-yl)-phenylamino]-pyridin-4-yl}-pyrido[3,4d]pyrimidin-4-yl)-piperidine-3,4-diol] | < 100 nM |
| CN1CCN(c2cccc(Nc3cc(-c4nc(N5CCC(O)C(O)C5)c5c(C6CC6)cncc5n4)ccn3)c2)CC1 (single isomer, unassigned) [Example 754, (3S,4S or 3R,4R)-1-(5-Cyclopropyl-2-{2-[3-(4-methyl-piperazin-1-yl)-phenylamino]-pyridin-4-yl}-pyrido[3,4-d]pyrimidin-4-yl)-piperidine-3,4-diol] | < 100 nM |
| N#Cc1ccc(Nc2cc(-c3nc(N4CCNCC4)c4c(C5CC5)cncc4n3)ccn2)cc1 [Example 645, 4-[4-(5 Cyclopropyl-4-piperazin-1-yl-pyrido[3,4-d]pyrimidin-2-yl)-pyridin-2-ylamino]-benzonitrile] | < 100 nM |
| CN(c1nc(-c2ccnc(Nc3ncc(F)cc3F)c2)nc2cncc(C3CCC3)c12)C1CCNCC1 [Example 2157, {5-Cyclobutyl-2-[2-(3,5-difluoro-pyridin-2-ylamino)-pyridin-4-yl]-pyrido[3,4-d]pyrimidin-4-yl}-methyl-piperidin-4-yl-amine] | < 100 nM |
| COc1cncc2nc(-c3ccnc(Nc4cncnc4)c3)nc(N[C@@H]3CCNC3)c12 [Example 385, {5-Methoxy-2-[2-(pyrimidin-5-ylamino)-pyridin-4-yl]-pyrido[3,4-d]pyrimidin-4-yl}-(R)-pyrrolidin-3-yl-amine] | 100 to 1000 nM |
| COc1cncc2nc(-c3ccnc(Nc4cc(C(N)=O)ccn4)c3)nc(N3CCNCC3)c12 [Example 379, 2-[4-(5-Methoxy-4-piperazin-1-yl-pyrido[3,4-d]pyrimidin-2-yl)-pyridin-2-ylamino]-isonicotinamide] | < 100 nM |
| c1cc(-c2nc(N3CCSCC3)c3ccncc3n2)ccn1 [Example 24, 4-[2-(pyridin-4-yl)pyrido[3,4-d]-pyrimidin-4-yl]-thiomorpholine] | 10000 to 40000 nM |
| COc1cncc2nc(-c3ccnc(Nc4cnccn4)c3)nc(N[C@@H]3CCNC3)c12 [Example 239, {5-Methoxy-2-[2-(pyrazin-2-ylamino)-pyridin-4-yl]-pyrido[3,4-d]pyrimidin-4-yl}-(R)-pyrrolidin-3-yl-amine] | < 100 nM |

Now from value to molecule:

| IC50 | Compound |
| --- | --- |
| 1000 to 10000 nM | NC(=O)c1cc(F)c(Nc2cc(-c3nc(N4CCNCC4)c4c(C5CC5)cncc4n3)ccn2)c(F)c1 [Example 822, 4-[4-(5-Cyclopropyl-4-piperazin-1-yl-pyrido[3,4-d]pyrimidin-2-yl)-pyridin-2-ylamino]-3,5-difluoro-benzamide] |
| < 100 nM | Fc1cccc(F)c1Nc1cc(-c2nc(NCC3CCNCC3)c3c(C4CC4)cncc3n2)ccn1 [Example 2107, {5-Cyclopropyl-2-[2-(2,6-difluoro-phenylamino)-pyridin-4-yl]-pyrido[3,4-d]pyrimidin-4-yl}-piperidin-4-ylmethyl-amine] |
| < 100 nM | c1cc(C2CC2)c2nc(Nc3cc(-c4nc(N5CCNCC5)c5c(C6CC6)cncc5n4)ccn3)nn2c1 [Example 846, [4-(5-Cyclopropyl-4-piperazin-1-yl-pyrido[3,4-d]pyrimidin-2-yl)-pyridin-2-yl]-(8-cyclopropyl-[1,2,4]triazolo[1,5-a]pyridin-2-yl)-amine] |
| 100 to 1000 nM | Fc1cc(F)c(Nc2cc(-c3nc(N4CCNCC4)c4c(C5CC5)cnc(C5CC5)c4n3)ccn2)nc1F [Example 2187, [4-(5,8-Dicyclopropyl-4-piperazin-1-yl-pyrido[3,4-d]pyrimidin-2-yl)-pyridin-2-yl]-(3,5,6-trifluoro-pyridin-2-yl)-amine] |
| < 100 nM | Fc1cc(F)c2nc(Nc3cc(-c4nc(N5CCNCC5)c5c(C6CC6)cncc5n4)ccn3)nn2c1 [Example 2040, [4-(5-Cyclopropyl-4-piperazin-1-yl-pyrido[3,4-d]pyrimidin-2-yl)-pyridin-2-yl]-(6,8-difluoro-[1,2,4]triazolo[1,5-a]pyridin-2-yl)-amine] |
| < 100 nM | c1cc(-c2nc(N3CCNCC3)c3c(C4CCC4)cncc3n2)c2cc([C@H]3C[C@H]4CC[C@@H]3C4)[nH]c2n1 (racemic) [Example 2135, (±)-endo-2-(2-Bicyclo[2.2.1]hept-2-yl-1H-pyrroIo[2,3-b]pyridin-4-yl)-5-cyclobutyl-4-piperazin-1-yl-pyridor3,4-d]pyrimidine] |
| < 100 nM | CN1CCC(Nc2nc(-c3ccnc(Nc4c(F)cccc4F)c3)nc3cncc(C4CC4)c23)CC1 [Example 2084, {5-Cyclopropyl-2-[2-(2,6-difluoro-phenylamino)-pyridin-4-yl]-pyrido[3,4-d]pyrimidin-4-yl}-(1-methyl-piperidin-4-yl)-amine] |
| < 100 nM | Fc1cc(F)c(Nc2cc(-c3nc(N4CCNCC4)c4c(C5CCC5)cncc4n3)ccn2)nc1F [Example 807, [4-(5-Cyclobutyl-4-piperazin-1-yl-pyrido[3,4-d]pyrimidin-2-yl)-pyridin-2-yl]-(3,5,6-trifluoro-pyridin-2-yl)-amine] |
| < 100 nM | c1cc(-c2nc(N3CCNCC3)c3c(C4CCC4)cncc3n2)c2cc(C3CCCO3)[nH]c2n1 (stereo not drawn) [Example 2185, 5-Cyclobutyl-4-piperazin-1-yl-2-[2-(tetrahydro-furan-2-yl)-1H-pyrrolo[2,3-b]pyridin-4-yl]-pyrido[3,4-d]pyrimidine] |

— patent US9914730B2, “Azaquinazoline inhibitors of Atypical protein Kinase C” (Ignyta, Inc., priority 2012, dated 2018)
